# Patent publication US20140322348A1 (priority 2011, published 2014)
# Columns and labels:
# grapevine downy mildew = test: Vineyard trial against grapevine downy mildew, foliar sprays; conditions: seven days after third application, rates TG 0.3%, potassium phosphite 0.4%, Liquid Copper 0.25%; for % infected leaf area: grape "Superior"
# Protocol: The Timorex Gold or synthetic fungicidal composition were diluted prior to use. At the outset, pre-harvest plants were moderately infected with downy mildew. The crops studied were drip irrigated and fertilized according to known recommendations. Treatments were applied in a randomized complete block, with 4 replications per treatment. Plot size in each instance was 8 m length. Fungicidal treatment was applied using backpack sprayer equipped with a mist blower (STHIL 340 with endpiece 3) to spray a volume of 100 liter/dunam (1000 liter/ha) Foliar sprays were applied on days 1, 10 and 17. The plants were inspected on day 1 (prior to spraying) and days 11, 18 and 24. At the beginning of the experiment, for each group, 5 plant extremities having single leafs were marked. The percent of coverage of downy mildew on a five square cm area was estimated before marking in order to estimate the efficacy in curing infection and after marking to estimate the efficacy in preventing infection. To analyze the results, an arc-sin transformation was performed on the raw data, and analysis of variance (ANOVA) using the SAS GLM procedure was applied to the transformed data. The Tukey-Kramer Test was applied to determine whether differences between treatments were significant.
# cucumber downy mildew = test: Greenhouse trial against cucumber downy mildew, foliar sprays; conditions: rates TG 0.5%, potassium phosphite 0.4%
# Protocol: Combinations of TTO (supplied as Timorex Gold®, 23.8% TTO) and a synthetic fungicidal composition (supplied Canon® 50 from Luxembourg Industries Ltd., Israel, containing 780 g potassium phosphite (equivalent to 500 g phosphorous acid) per liter) were tested against cucumber downy mildew. Greenhouse-grown plants were drip irrigated and fertilized according to known recommendations for this crop. Treatments were applied in a randomized complete block, with 5 replications per treatment. Plot size in each instance was of 7 m length, containing 14 plants. The TTO or potassium phosphite composition were diluted prior to use. Fungicidal treatment was applied using backpack sprayer equipped with a mist blower (STHIL 340) to spray a at a rate of 350 cc/dunam. Three foliar sprays were applied at 11-13 day intervals. Disease severity was evaluated by determining the leaf area covered with downy mildew (disease severity) on each of 20 leaves randomly selected per each replicate. […] To analyze the results, an arc-sin transformation was performed on the raw data, and analysis of variance (ANOVA) using the SAS GLM procedure was applied to the transformed data. The Tukey-Kramer Test was applied to determine whether differences between treatments were significant.
substance,measurement,setting,value
potassium phosphite,% infected leaf area,grapevine downy mildew; Curative,28.25%
same,Efficacy (%),grapevine downy mildew; Curative,25.2%
same,% infected leaf area,grapevine downy mildew; Protectant,14%
same,Efficacy (%),grapevine downy mildew; Protectant,62.9%
same,Severity % infected leaf area,cucumber downy mildew; 11 days after third application,1.4%
same,Efficacy (%),"cucumber downy mildew; Incidence, seven days after third application",74.4%
same,Incidence % leaves infected,cucumber downy mildew; Seven days after third application,23.7%
same,Efficacy (%),"cucumber downy mildew; Severity, 11 days after third application",92.1%
